Assay results: patent US10934297B2, “5-heteroaryl substituted indazole-3-carboxamides and preparation and use thereof” (Samumed, LLC, priority 2018, dated 2021)

Columns and labels:
[1] = test system: primary human fibroblasts derived from IPF patients (LL29 cells); assay: Inhibition of the fibrotic process: αSMA staining in TGF-β1 treated LL29 fibroblasts; type: cell-based; settings: Homo sapiens, Fibroblast; for EC50: 96 h, LL29 cells, TGF-β1 20 ng/mL, 4 days, % αSMA positive cells
How it was run: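 LL29 fibroblasts from IPF patients, in F12 medium with 1% FBS, treated with TGF-β1 plus compound; TGF-β1 with DMSO as positive control, DMSO alone as negative control. After 4 days' incubation, SYTOX green nucleic acid stain added at 1 μM final, 30 min at room temperature.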

[2] = target: GSK3β kinase (Homo sapiens (Human), UniProt P49841); assay: GSK3β kinase assay (Ser/Thr 09 peptide Z-lyte FRET); type: biochemical; settings: read-out: EC50 (method: IC50)
Chain of GSK3β kinase (P49841 whole entry): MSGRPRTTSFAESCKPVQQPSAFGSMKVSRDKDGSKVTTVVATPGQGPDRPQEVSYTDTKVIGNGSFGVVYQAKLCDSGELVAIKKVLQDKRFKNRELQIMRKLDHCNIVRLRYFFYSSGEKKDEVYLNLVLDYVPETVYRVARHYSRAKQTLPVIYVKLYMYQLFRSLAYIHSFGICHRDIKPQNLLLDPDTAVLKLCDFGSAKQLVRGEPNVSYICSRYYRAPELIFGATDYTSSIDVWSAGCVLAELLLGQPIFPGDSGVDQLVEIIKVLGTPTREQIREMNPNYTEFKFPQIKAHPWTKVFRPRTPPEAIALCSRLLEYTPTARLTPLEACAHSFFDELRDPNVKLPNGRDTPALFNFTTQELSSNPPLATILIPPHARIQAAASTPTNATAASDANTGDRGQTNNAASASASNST
How it was run: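 Non-radioactive Z-lyte FRET read-out, kinase activity expressed as coumarin/fluorescein emission ratio. Compounds incubated with the reaction mixture one hour at room temperature in duplicate, then development buffer added for another hour. IC50 from non-linear regression of dose-response curves.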

[3] = test system: Wnt activity (Sp5-Luc reporter in SW480 cells); assay: Screening assay for Wnt activity: Sp5-Luc reporter gene assay in SW480 colon carcinoma cells; type: cell-based, human; settings: Homo sapiens, 36 to 48 hours
How it was run: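 EC50 values come from a variable-slope four-parameter fit of luminescence normalized to DMSO-only wells. The read-out follows 36–48 h incubation at 37 °C, 5% CO2, in DMEM containing 1% fetal bovine serum. Cells are hygromycin-selected SW480 stably expressing firefly luciferase under a Wnt-responsive Sp5 promoter (eight TCF/LEF sites).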

[4] = target: DYRK1A kinase (Homo sapiens (Human), UniProt Q13627); assay: DYRK1A kinase assay (Ser/Thr 18 peptide Z-lyte FRET); type: biochemical; settings: read-out: EC50 (method: IC50)
How it was run: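 Kinase reactions with compound ran 1 h at room temperature in duplicate, and development reagent was then added for another hour.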

[5] = test system: IL-6; assay: IL-6 inhibition in LPS-stimulated human peripheral blood mononuclear cells (HTRF); type: cell-based; settings: Homo sapiens, PBMC; for EC50: huPBMCs, LPS 50 ng/mL, 22 hours, IL-6 HTRF; for inhibition at 10 µM: read-out: percent inhibition at 10 μM
How it was run: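 HTRF 665/620 nm ratio, read after 3 h antibody incubation at room temperature, quantified IL-6 released by fresh human PBMCs (1×10e6 cells/mL, 1% FBS-RPMI). The cells got compound, then 50 ng/mL LPS at 2 h, followed by a further 22 h at 37° C. EC50 came from DMSO-normalized readings run in duplicate.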

[6] = test system: SW480 colon carcinoma cells; assay: Cell viability assay (CellTiter-Glo) in SW480 colon carcinoma cells; type: cell-based, human; settings: Homo sapiens, 96 h, four days
How it was run: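 Viability was taken from CellTiter-Glo ATP luminescence, read about 12 min after reagent addition, relative to DMSO controls. The cells were Sp5-Luc reporter SW480 colon carcinoma cells, 2,000/well in 1% FBS DMEM, exposed to compound for four days at 37 °C.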

[7] = test system: primary human mesenchymal stem cells (hMSCs); assay: Tenocyte differentiation assay (SCXA-positive cells) in hMSCs; type: cell-based; settings: for EC50: Homo sapiens, Mesenchymal stem cells, 96 h, hMSCs, 4 days, SCXA positive cells; for percent in parentheses under EC50 >100: given for EC50 >100 μM, meaning not defined in this example
Source text: Representative compounds were screened using primary human mesenchymal stem cells (hMSCs) to determine their ability to induce tenocyte differentiation (process by which tendon is developed).
Primary human mesenchymal stem cells (hMSCs) were purchased from Lonza (Walkersville, Md.) and expanded in Mesenchymal Stem Cell Growth Media (Lonza). Cells between passage 3 and 6 were used for the experiments.
Cells were fixed using 4% formaldehyde (Electron Microscopy Sciences), and stained with anti-Sclerasis (anti-SCXA) antibodies (Abgent, San Diego, Calif.) [Webb S., et.al., Retinoic acid receptor signaling preserves tendon stem cell characteristics and prevents spontaneous differentiation in vitro, Stem Cell Research & Therapy 2016, 7:45] overnight at 4° C. […] Number of cells positive for SCXA in each well was quantified using the CellInsight CX5. Data was normalized to the average of 12 DMSO treated wells on the same plate using Dotmatics Studies module. The normalized averages (fold change over DMSO) of 3 replicate wells for each compound concentration were calculated. Due to solubility limitations of some of the compounds, values for higher doses were manually corrected and curve fitting and EC50 determinations were performed using Dotmatics Studies.

Row | Structure (SMILES) | EC50 [1] | IC50 [2] | EC50 [3] | IC50 [4] | EC50 [5] | EC50 [6] | EC50 [7] | percent in parentheses under EC50 >100 [7] | inhibition at 10 µM [5] | inhibition at 10 µM ([1]; read-out: percent inhibition at 10 μM)
1 | CN1CCC(Oc2ccc(NC(=O)c3n[nH]c4c(F)cc(-c5cnn(C)c5)cc34)cn2)CC1 [Compound 129, 7-Fluoro-5-(1-methyl-1H-pyrazol-4-yl)-N-(6-((1-methylpiperidin-4-yl)oxy)pyridin-3-yl)-1H-indazole-3-carboxamide] | 1.84 µM | 0.087 µM | 6.12 µM | 0.03 µM | 6.77 µM | 3.02 µM | > 100 µM | (13.0%) | – | –
2 | CN1CCC(n2cc(-c3cc4c(C(=O)Nc5cncc(F)c5)n[nH]c4cc3F)cn2)CC1 [Compound 126, 6-Fluoro-N-(5-fluoropyridin-3-yl)-5-(1-(1-methylpiperidin-4-yl)-1H-pyrazol-4-yl)-1H-indazole-3-carboxamide] | 2.45 µM | 0.237 µM | 0.335 µM | 0.009 µM | 5.78 µM | 1.53 µM | 2.59 µM | – | – | –
3 | CN1CCC(n2cc(NC(=O)c3n[nH]c4ccc(-c5cnn(C)c5)cc34)cn2)CC1 [Compound 141, 5-(1-Methyl-1H-pyrazol-4-yl)-N-(1-(1-methylpiperidin-4-yl)-1H-pyrazol-4-yl)-1H-indazole-3-carboxamide] | 0.103 µM | 0.004 µM | 0.079 µM | 0.001 µM | 0.382 µM | 0.064 µM | 0.93 µM | – | – | –
4 | CNC(=O)c1ccc(NC(=O)c2n[nH]c3ccc(-c4cnn(C5CCN(C)CC5)c4)cc23)cn1 [Compound 128, N-(6-(Methylcarbamoyl)pyridin-3-yl)-5-(1-(1-methylpiperidin-4-yl)-1H-pyrazol-4-yl)-1H-indazole-3-carboxamide] | 0.439 µM | 0.633 µM | 0.18 µM | 0.005 µM | 3.28 µM | 0.493 µM | 5.72 µM | – | – | –
5 | CN1CCC(n2cc(-c3ccc4[nH]nc(C(=O)Nc5ccc(OC(F)F)nc5)c4c3)cn2)CC1 [Compound 88, N-(6-(Difluoromethoxy)pyridin-3-yl)-5-(1-(1-methylpiperidin-4-yl)-1H-pyrazol-4-yl)-1H-indazole-3-carboxamide] | 0.624 µM | 0.774 µM | 0.435 µM | 0.016 µM | 8.78 µM | 0.338 µM | 2.55 µM | – | – | –
6 | C[C@H](NC(=O)c1n[nH]c2c(F)cc(-c3cnn(C)c3)cc12)C(F)(F)F [Compound 135, (S)-7-Fluoro-5-(1-methyl-1H-pyrazol-4-yl)-N-(1,1,1-trifluoropropan-2-yl)-1H-indazole-3-carboxamide] | > 10 µM | 0.043 µM | > 10 µM | 0.439 µM | > 10 µM | > 10 µM | > 100 µM | (16.1%) | 50.6% | –
7 | CC[C@H](NC(=O)c1n[nH]c2ccc(-c3cnc(C)n3C)cc12)C(F)(F)F [Compound 132, (S)-5-(1,2-Dimethyl-1H-imidazol-5-yl)-N-(1,1,1-trifluorobutan-2-yl)-1H-indazole-3-carboxamide] | > 10 µM | 0.106 µM | > 10 µM | 0.453 µM | > 10 µM | > 10 µM | > 100 µM | (26.5%) | 12.7% | 48.8%
